Measurements as given in patent US8071620B2, “Carbamic acid compounds comprising a bicyclic heteroaryl group as HDAC inhibitors” (Topotarget UK Limited, priority 2003, dated 2011).
pIC50: −log10 of the molar value. Structures can show the parent of a compound that is named as a salt.

Tests used:
JURKAT human T-cell line = experiment: Secondary assay: cell proliferation inhibition WST-1, Jurkat; type: cell-based; conditions: Jurkat cells, 48 h
Description: (§1) Compounds with HDAC inhibition activity, as determined using the primary assay, were subsequently evaluated using secondary cell-based assays. The following cell lines were used:
JURKAT—Human T-cell line (ATCC no. TIB-152).
(§2) Cells were cultured, exposed to candidate compounds, and incubated for a time, and the number of viable cells was then assessed using the Cell Proliferation Reagent WST-1 from Boehringer Mannheim (Cat. No. 1 644 807), described below.
(§3) Cells were plated in 96-well plates at 3-10×10^3 cells/well in 100 μL of culture medium. The following day, different concentrations of candidate compounds were added and the cells incubated at 37° C. for 48 h. Subsequently, 10 μL/well of WST-1 reagent was added and the cells reincubated for 1 hour. After the incubation time, absorbance was measured.
(§4) WST-1 is a tetrazolium salt which is cleaved to formazan dye by cellular enzymes. An expansion in the number of viable cells results in an increase in the overall activity of mitochondrial dehydrogenases in the sample. This augmentation in the enzyme activity leads to an increase in the amount of formazan dye formed, which directly correlates to the number of metabolically active cells in the culture. The formazan dye produced is quantified by a scanning multiwell spectrophotometer by measuring the absorbance of the dye solution at 450 nm wavelength (reference wavelength 690 nm).
(§5) Percent activity (% activity) in reducing the number of viable cells was calculated for each test compound as: % activity={(S^c−B)/(S°−B)}×100 wherein S^c denotes signal measured in the presence of the compound being tested, S° denotes signal measured in the absence of the compound being tested, and B denotes the background signal measured in blank wells containing medium only. […] IC50 values were calculated using the software package Prism 3.0 (GraphPad Software Inc., San Diego, Calif.), setting top value at 100 and bottom value at 0.

HeLa cells = experiment: Secondary assay: cell proliferation inhibition WST-1, HeLa; type: cell-based; conditions: Homo sapiens, 48 h
Description: as §1
HeLa—Human cervical adenocarcinoma cell line (ATCC ref. No. CCL-2).
as §2, §3, §4, §5

HDAC (HeLa cell extract) = experiment: Primary assay: deacetylase activity (HDAC inhibition), HeLa cell extract; set-up: species or system human; conditions: HeLa cell extract as HDAC source; read-out: Biochemical Assay Data HDAC Inhibition (IC50) HeLa
Text: Briefly, this assay relies on the release of radioactive acetate from a radioactively labelled histone fragment by the action of HDAC enzyme. Test compounds, which inhibit HDAC, reduce the yield of radioactive acetate. Signal (e.g., scintillation counts) measured in the presence and absence of a test compound provide an indication of that compound's ability to inhibit HDAC activity. Decreased activity indicates increased inhibition by the test compound.
The histone fragment was an N-terminal sequence from histone H4, and it was labelled with radioactively labelled acetyl groups using tritiated acetylcoenzyme A (coA) in conjunction with an enzyme which is the histone acetyltransferase domain of the transcriptional coactivator p300. […] The acetylated peptide was then separated from free acetyl coA by size exclusion chromatography on Sephadex G-15 (Sigma G-15-120), using distilled H2O as the mobile phase.
After purification of the radiolabelled histone fragment, it was incubated with a source of HDAC (e.g., an extract of HeLa cells (a rich source of HDAC), recombinantly produced HDAC1 or HDAC2) and any released acetate was extracted into an organic phase and quantitatively determined using scintillation counting. By including a test compound with the source of HDAC, that compound's ability to inhibit the HDAC was determined.
Alternatively, the activity of the compounds as HDAC inhibitors was determined using a commercially available fluorescent assay kit: (Fluor de Lys™, BioMol Research Labs, Inc., Plymouth Meeting, USA).
Extensive comparative studies have shown that Primary Assay (1) and Primary Assay (2), discussed above, yield equivalent results. Primary Assay results reported herein are (a) exclusively from (1); (b) exclusively from (2); or (c) from both (1) and (2).
The HeLa cell extract was made from HeLa cells (ATCC Ref. No. CCL-2) by freeze-thawing three times in 60 mM TrisCl pH 8.0, 450 mM NaCl, 30% glycerol. Two cell volumes of extraction buffer were used, and particulate material was centrifuged out (20800 g, 4° C., 10 min). The supernatant extract having deacetylase activity was aliquoted and frozen for storage.
Percent activity (% activity) for each test compound was calculated as: % activity={(S^c−B)/(S°−B)}×100 wherein S^c denotes signal measured in the presence of enzyme and the compound being tested, S° denotes signal measured in the presence of enzyme but in the absence of the compound being tested, and B denotes the background signal measured in the absence of both enzyme and compound being tested.

[1] = tested on: K11 HPV E7 transformed human keratinocyte line; experiment: Secondary assay: cell proliferation inhibition WST-1, K11; type: cell-based; conditions: K11 cells, 48 h
Description: as §1
K11—HPV E7 transformed human keratinocyte line provided by Pidder Jansen-Duerr, Institut für Biomedizinische Alternsforschung, Innsbruck, Austria.
as §3, §4, §5

Row | Molecule | melting point | pIC50 (HeLa cells) | pIC50 (HDAC (HeLa cell extract)) | further results
1 | oxamflatin | – | – | – | pIC50 (JURKAT human T-cell line): 6.77
2 | O=C(CCc1nc2ccccc2[nH]c1=O)NO [PX119094, N-Hydroxy-3-(3-oxo-3,4-dihydro-2-quinoxalinyl)propanamide] | 213 to 214 °C | – | – | –
3 | O=C(/C=C/c1nc2ccccc2o1)NO [PX118835, (E)-3-(1,3-Benzoxazol-2-yl)-N-hydroxy-2-propenamide] | – | 5.77 | 7.49 | –
4 | O=C(/C=C/c1ccc2ccccc2n1)NO [PX117449, (E)-N-Hydroxy-3-(2-quinolinyl)-2-propenamide] | 159.5 to 160.5 °C | 5.74 | 7.46 | pIC50 (JURKAT human T-cell line; Homo sapiens): 6.00; pIC50 ([1]; Homo sapiens, Keratinocyte): 4.91
5 | O=C(/C=C/C=C/c1ccc2ccccc2n1)NO [PX119135, (2E,4E)-N-Hydroxy-5-(2-quinolinyl)-2,4-pentadienamide] | 160 to 162 °C | – | 6.48 | –
6 | Cc1ccc2nc(CCC(=O)NO)cc(C)c2c1 [PX119138, 3-(4,6-Dimethyl-2-quinolinyl)-N-hydroxypropanamide] | 192 to 194 °C | – | 6.21 | –
7 | Cc1ccc2nc(/C=C/C(=O)NO)cc(C)c2c1 [PX118864, (E)-3-(4,6-Dimethyl-2-quinolinyl)-N-hydroxy-2-propenamide] | 199 to 201 °C | 5.89 | 6.22 | –
8 | O=C(/C=C/c1cnc2ccccc2n1)NO (as salt: sodium) [PX118840, (E)-3-(2-Quinoxalinyl)-N-hydroxy-2-propenamide sodium salt] | 200 to 202 °C (dec.) | – | – | –
9 | O=C(/C=C/c1ccc2cccc(OCc3ccccc3)c2n1)NO [PX118867, (E)-3-[8-(Benzyloxy)-2-quinolinyl]-N-hydroxy-2-propenamide] | 180 to 182 °C | 5.41 | 6.58 | –
10 | O=C(/C=C/c1cccc2ncccc12)NO [PX119088, (E)-N-Hydroxy-3-(5-quinolinyl)-2-propenamide] | 211 to 213 °C | 4.75 | – | –
11 | O=C(/C=C/c1nc2ccccc2s1)NO [PX118915, (E)-3-(1,3-Benzothiazol-2-yl)-N-hydroxy-2-propenamide] | 163 to 165 °C | 5.14 | 7.52 | –
12 | COc1ccc2nc(C)ccc2c1/C=C/C(=O)NO [PX119038, (E)-N-Hydroxy-3-(6-methoxy-2-methyl-5-quinolinyl)-2-propenamide] | 225 to 227 °C | – | – | –
13 | O=C(/C=C/c1cnc2ccccc2n1)NO [PX118840, (E)-3-(2-Quinoxalinyl)-N-hydroxy-2-propenamide sodium salt] | – | 5.68 | 7.38 | –
14 | COc1ccc2nc(/C=C/C(=O)NO)ccc2c1Br [PX118865, (E)-3-(5-Bromo-6-methoxy-2-quinolinyl)-N-hydroxy-2-propenamide] | 204 to 206 °C | 5.85 | 6.66 | –
15 | O=C(/C=C/c1ccc2cc(F)ccc2n1)NO [PX118886, (E)-3-(6-Fluoro-2-quinolinyl)-N-hydroxy-2-propenamide] | – | 5.59 | 7.36 | –
16 | O=C(/C=C/c1cnc2ccccc2c1)NO [PX118987, (E)-N-Hydroxy-3-(3-quinolinyl)-2-propenamide] | 205 to 207 °C | 5.43 | 6.71 | –
17 | O=C(CCc1ccc2ccccc2n1)NO [PX118828, N-Hydroxy-3-(2-quinolinyl)propanamide] | 159 to 160 °C | 4.57 | 6.60 | –
18 | COc1ccc2nc(/C=C/C(=O)NO)ccc2c1 [PX118887, (E)-N-Hydroxy-3-(6-methoxy-2-quinolinyl)-2-propenamide] | 172 to 175 °C | 5.74 | 7.55 | –
19 | O=C(/C=C/c1ccnc2ccccc12)NO [PX118885, (E)-3-(4-Quinolinyl)-N-hydroxy-2-propenamide] | 204 to 206 °C | 5.57 | 7.17 | –
20 | O=C(CCc1ccc2cccc(O)c2n1)NO [PX119095, N-Hydroxy-3-(8-hydroxy-2-quinolinyl)propanamide] | 165 to 167 °C | 4.65 | – | –
21 | O=C(NO)c1ccc(OCc2ccc3ccccc3n2)cc1 [PX119141, N-Hydroxy-4-(2-quinolinylmethoxy)benzamide] | 202 to 204 °C | – | 6.73 | –
22 | Nc1ccccc1NC(=O)c1ccc(CNC(=O)OCc2cccnc2)cc1 [MS-275] | – | – | – | pIC50 (JURKAT human T-cell line): 6.44; pIC50 [1]: 5.04
23 | CC(/C=C/C(=O)NO)=C\[C@@H](C)C(=O)c1ccc(N(C)C)cc1 [TSA, trichostatin A] | – | 6.46 | – | pIC50 (JURKAT human T-cell line; Homo sapiens): 7.38; pIC50 ([1]; Homo sapiens, Keratinocyte): 6.42
24 | Cc1ccc2ccc(/C=C/C(=O)NO)nc2c1 [PX118869, (E)-N-Hydroxy-3-(7-methyl-2-quinolinyl)-2-propenamide] | 191 to 193 °C | 5.82 | 7.42 | –
25 | Cc1nc2ccccc2nc1/C=C/C(=O)NO [PX118866, (E)-N-Hydroxy-3-(3-methyl-2-quinoxalinyl)-2-propenamide] | 170 to 172 °C | 4.48 | – | –
26 | O=C(/C=C/c1ccc2ncccc2c1)NO [PX119039, (E)-N-Hydroxy-3-(6-quinolinyl)-2-propenamide] | – | 4.85 | 6.58 | –
27 | O=C(/C=C/c1cccc2cccnc12)NO [PX119071, (E)-3-(8-Quinolinyl)-N-hydroxy-2-propenamide] | 159 to 160 °C | – | – | –
28 | O=C(/C=C/c1ccc2cccnc2c1)NO [PX119068, (E)-N-Hydroxy-3-(7-quinolinyl)-2-propenamide] | 203 to 205 °C | 5.17 | 6.95 | –
29 | Cc1ccc2nc(/C=C/C(=O)NO)ccc2c1 [PX118839, (E)-3-(6-Methyl-2-quinolinyl)-N-hydroxy-2-propenamide] | 200 to 202 °C (dec.) | 5.62 | 7.40 | –
